Source: article PMC5041076, “Ilex kaushue and Its Bioactive Component 3,5-Dicaffeoylquinic Acid Protected Mice from Lipopolysaccharide-Induced Acute Lung Injury” (Scientific Reports, 2016)
Entries after “also recorded” stand apart in the source; their conditions may differ. Read-outs that look alike come from different tables or passages of the source.

Assays:
[1] = target: T1, Human neutrophil elastase (Homo sapiens, UniProt P08246); assay: Serine protease enzyme inhibition assay, HNE; type: biochemical; conditions: for IC50: enzyme assay, mean ± S.E.M. (n ≥ 3), read-out: IC50 HNE
T1 construct: purchased Enzo BML-SE284
T1 sequence (P08246 30-267): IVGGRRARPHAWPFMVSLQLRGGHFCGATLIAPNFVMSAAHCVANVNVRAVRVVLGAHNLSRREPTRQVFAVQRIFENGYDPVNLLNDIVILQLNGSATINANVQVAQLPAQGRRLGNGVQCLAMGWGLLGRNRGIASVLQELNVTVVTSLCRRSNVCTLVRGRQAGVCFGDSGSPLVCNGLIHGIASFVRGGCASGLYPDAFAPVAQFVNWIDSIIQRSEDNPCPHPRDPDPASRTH

Human cathepsin G = target: T2, Human cathepsin G (Homo sapiens, UniProt P08311); assay: Serine protease enzyme inhibition assay, cathepsin G; type: biochemical; conditions: mean ± S.E.M. (n ≥ 3)
T2 construct: purchased Enzo BML-SE283
T2 sequence (P08311 21-255): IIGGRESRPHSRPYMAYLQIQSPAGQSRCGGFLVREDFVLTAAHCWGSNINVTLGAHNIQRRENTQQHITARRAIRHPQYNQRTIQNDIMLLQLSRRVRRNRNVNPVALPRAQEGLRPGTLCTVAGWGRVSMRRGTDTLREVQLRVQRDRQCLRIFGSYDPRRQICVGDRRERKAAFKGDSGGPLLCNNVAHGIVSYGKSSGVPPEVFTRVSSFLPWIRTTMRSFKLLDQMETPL

Human proteinase 3 = target: T3, Human proteinase 3 (Homo sapiens, UniProt P24158); assay: Serine protease enzyme inhibition assay, proteinase 3; type: biochemical; conditions: mean ± S.E.M. (n ≥ 3)
T3 construct: purchased Merk 539483
T3 sequence (P24158 28-256): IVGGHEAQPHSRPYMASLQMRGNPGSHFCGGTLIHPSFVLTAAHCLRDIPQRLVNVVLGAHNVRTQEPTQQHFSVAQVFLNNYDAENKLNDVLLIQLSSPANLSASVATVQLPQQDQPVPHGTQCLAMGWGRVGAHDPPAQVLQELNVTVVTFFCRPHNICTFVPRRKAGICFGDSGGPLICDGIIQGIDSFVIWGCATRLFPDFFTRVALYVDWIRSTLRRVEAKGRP

[2] = tested on: fMLF/CB-activated neutrophils; assay: Elastase release in fMLF/CB-activated neutrophils; type: cell-based; conditions: for IC50: read-out: IC50 HNE (NE activity / elastase release)
Procedure: (§1) All assays were performed as described previously[58],[59]. Neutrophils isolated from the blood of healthy volunteers (20–30 years old) were resuspended in a Ca^2+-free HBSS buffer (pH 7.4) at 4 °C before use. O2^.− generation was measured based on reduction of ferricytochrome c. In brief, after supplementation with 0.5 mg/ml ferricytochrome c and 1 mM Ca^2+, neutrophils were equilibrated at 37 °C for 2 min and incubated with the specified drugs for 5 min. Neutrophils were activated using 30 nM fMLF or 100 nM LTB4 for 10 min after addition of cytochalasin B (CB, 1 μg/mL) for 3 min. Changes in absorbance concomitant with reduction of ferricytochrome c at 550 nm were continuously monitored. For elastase release, neutrophils (6 × 10^5 cells/mL) were mixed with methoxysuccinyl-Ala-Ala-Pro-Val-pNA (100 μM) substrate at 37 °C for 5 min. […] Inhibition of superoxide generation and elastase release were calculated in keeping with previous reports.

Src family kinases = assay: Immunoblotting of Src family kinase phosphorylation in fMLF-activated neutrophils; type: cell-based, human; conditions: 10 μM, 5 min before fMLF (0.1 μM) 0.5 min, Western blot; listed as 3,5-DCQA
Procedure: (§2) Neutrophils were pretreated with DMSO or 3,5-DCQA (10 μM) for 5 min before fMLF stimulation for 0.5 min at 37 °C. Cells were lysed with lysis buffer consisting of 50 mM HEPES (pH 7.4), 100 mM NaCl, 1 mM Ca^2+, 2 mM Na3VO4, 1 mM phenylmethanesulfonyl fluoride, 5% b-mercaptoethanol, 10 mM p-nitrophenyl phosphate, 1% protease inhibitor cocktail (Sigma-Aldrich) and 1% Triton X-100. Cell lysates were collected by centrifugation at 14,000 rpm for 20 min at 4 °C. After gel electrophoresis and transferring to membranes, samples were blocked with 5% nonfat milk in a mixture of Tris-buffer saline and Tween 20. Target protein was identified by the corresponding primary antibody overnight at 4 °C. Membranes were incubated with horseradish peroxidase-conjugated, secondary anti-rabbit or anti-mouse antibodies at room temperature for 1 h. After washing, enhanced chemiluminescence solution was used and protein expression was analyzed by the BioSpectrum Imaging System (UVP, Upland, CA). The quantitative ratio of target protein was normalized to total protein or GAPDH.

Vav = assay: Immunoblotting of Vav phosphorylation in fMLF-activated neutrophils; type: cell-based, human; conditions: 10 μM, 5 min before fMLF (0.1 μM) 0.5 min, Western blot; listed as 3,5-DCQA
Procedure: as §2

[3] = tested on: LPS-stimulated RAW 264.7 cells; design: method as in PMID 25975516; conditions: LPS-stimulated RAW 264.7 cells ref 45; cited from earlier work
[4] = tested on: fMLF/CB-activated neutrophils; assay: O2.- generation in fMLF/CB-activated neutrophils (ferricytochrome c reduction); type: cell-based, human
Procedure: as §1

human neutrophils = tested on: human neutrophils; design: method as in PMID 12384183; conditions: 100 μM, human neutrophils ref 35; cited from earlier work
[5] = tested on: LTB4-induced human neutrophils; assay: Elastase release in LTB4-induced neutrophils; type: cell-based; conditions: Neutrophil, inducer LTB4, Table S2
Procedure: as §1

LPS-induced ALI in mice = assay: LPS-induced ALI in mice; type: in vivo, mouse
Procedure: Mice were randomly divided into nine groups (n = 6 per group): (1) Vehicle, (2) IKWE (500 mg/kg), (3) 3,5-DCQA (50 mg/kg), (4) LPS, (5) LPS + DEX (10 mg/kg), (6) LPS + IKWE (250 mg/kg), (7) LPS + IKWE (500 mg/kg), (8) LPS + 3,5-DCQA (25 mg/kg) and (9) LPS + 3,5-DCQA (50 mg/kg). Agents were dissolved in vehicle solution (PBS containing 10% Tween-80). All animals were pretreated intraperitoneally with 100 μL vehicle solution or agents, respectively, 1 h before PBS or LPS (Sigma, Escherichia coli. 055:B5) intratracheal injection (5 mg/kg in 50 μL of PBS)[26],[27]. Mice were sacrificed at 6 h post-dosage and the left lung collected for histological examination or MPO activity measurement. Lung tissue was fixed with 10% formalin before embedding with paraffin wax and routine H&E staining. MPO activity was measured as described earlier. The right lobes were prepared for W/D weight ratio determination or BALF analysis. To obtain the W/D weight ratio, wet tissues were weighed immediately after collection, dried in the oven at 80 °C for 48 h and re-weighed. For post-treatment experiments, mice treated with vehicle or 3,5-DCQA (50 mg/kg) intraperitoneally 1 h after LPS treatment.
Mice were sacrificed and hilum of the left lung sealed. BALF was collected following injection with 0.2, 0.2, 0.3, 0.3 or 0.5 mL PBS. BALF samples were combined and centrifuged at 1,000 rpm for 15 min at 4 °C. Total proteins in the supernatant fraction were determined using the protein assay dye (BIO-RAD, 500-0006) with BSA as the reference and TNF-α and IL-6 levels measured with ELISA kits (eBioscience, 88-7324-88 and 88-7064-88). Cell pellets from BALF were resuspended in 100 μL PBS and cytospun (200 g, 3 min) onto a glass microscope slide, followed by staining with Liu’s stain. Neutrophils were counted under a light microscope in five randomly selected fields (×200 magnification)[60].

Akt = assay: Immunoblotting of Akt phosphorylation in fMLF-activated neutrophils; type: cell-based, human; conditions: 10 μM, 5 min before fMLF (0.1 μM) 0.5 min, Western blot; listed as 3,5-DCQA
Procedure: as §2

[6] = after intravenous administration ref 46, 47, 49; cited from earlier work
Human thrombin = Human thrombin (Homo sapiens, UniProt P00734); assay: Serine protease enzyme inhibition assay, thrombin
Bovine chymotrypsin = target: T4, Bovine chymotrypsin (Bos taurus, UniProt P00766); assay: Serine protease enzyme inhibition assay, chymotrypsin; type: biochemical; conditions: mean ± S.E.M. (n ≥ 3)
T4 construct: purchased Sigma-Aldrich C4129

[7] = fMLF/CB-activated human neutrophils
[8] = Neutrophil, fMLF/CB-activated human neutrophils
[9] = pretreatment i.p. 1 h before LPS, 6 h

Row | SMILES | IC50 [1] [µM] | IC50 (Human cathepsin G) [µM] | IC50 (Human proteinase 3) [µM] | IC50 ([2]; Homo sapiens, Neutrophil) [µM] | IC50 [2, 7] [µM] | IC50 [4, 8] [µM] | IC50 (Human thrombin) [µM] | IC50 (Bovine chymotrypsin) [µM] | further results
1 | O=C(C=Cc1ccc(O)c(O)c1)OC1CC(O)(C(=O)O)CC(OC(=O)C=Cc2ccc(O)c(O)c2)C1O (stereo not shown) [Compound 6, 3,5-dicaffeoylquinic acid] | 1.86 ± 0.06 | > 30 | > 30 | 12 ± 0.6 | > 10 | 1.92 ± 0.54 | > 30 | > 30 | Inh % (HNE inhibition) ([1]; at 30 M (so in the source), Table S3): 90.53 ± 0.52%; selectivity of inhibitory effect among serine proteases ([1]; five serine proteases examined): high selectivity for HNE; phosphorylation of SFKs (Src family kinases): reduce phosphorylation; also recorded: inhibited the phosphorylation; phosphorylation of Vav (Vav): reduce phosphorylation; also recorded: inhibited the phosphorylation; TNF-α and IL-6 expression [3]: able to reduce; elastase release, myeloperoxidase activity and superoxide production (human neutrophils): able to inhibit; IC50 [5]: 2.9 ± 0.55 µM; pathological features of ALI, post-treatment (LPS-induced ALI in mice; 50 mg/kg i.p. 1 h after LPS): significantly improved; levels of proinflammatory cytokines (TNF-α and IL-6) in BALF (LPS-induced ALI in mice; [9]): Reduced levels; lung edema (W/D weight ratio) (LPS-induced ALI in mice; [9]): improve lung edema; accumulation / infiltration of neutrophils in lung tissue (MPO activity, BALF, histology) (LPS-induced ALI in mice; pretreatment i.p. 1 h before LPS, 6 h, listed as 3,5-DCQA): suppress accumulation of neutrophils; also recorded: significantly reduced; pathological features of ALI (hemorrhage, infiltrating neutrophils, thickening of alveolar wall) (LPS-induced ALI in mice; pretreatment i.p. 1 h before LPS, IKWE 500 mg/kg, 3,5-DCQA 50 mg/kg): significantly improved; phosphorylation of Akt (Akt): did not inhibited the phosphorylation; time detectable in the plasma [6]: 4 h
2 | C[C@@H]1O[C@@H](O[C@H]2[C@H](OC(=O)[C@]34CCC(C)(C)[C@@H](O)[C@H]3C3=CC[C@@H]5[C@@]6(C)CC[C@H](O[C@@H]7OC[C@H](O)[C@H](O[C@@H]8O[C@H](CO)[C@@H](O)[C@H](O)[C@H]8O)[C@H]7O[C@@H]7O[C@@H](C)[C@H](O)[C@@H](O)[C@H]7O)C(C)(C)[C@@H]6CC[C@@]5(C)[C@]3(C)CC4)O[C@H](CO)[C@@H](O)[C@@H]2O)[C@H](O)[C@H](O)[C@H]1O [Compound 14] | > 30 | > 30 | > 30 |  | > 10 |  |  | > 30 | IC50 [4, 7]: > 10 µM; IC50 (Human thrombin; read-out: IC50 Thrombin, enzyme assay, mean ± S.E.M. (n ≥ 3)): > 30 µM
3 | CC1=C2C3=CCC4[C@@]5(C)CC[C@H](O)C(C)(C)C5CC[C@@]4(C)[C@]3(C)CC[C@@]2(C(=O)O)CC[C@H]1C (stereo partly shown) [Compound 15-1, randialic acid B] | > 30 | > 30 | 17.44 ± 0.16 |  |  | 0.14 ± 0.09 | 24.9 ± 1.33 | 16.98 ± 0.1 | IC50 [2, 8]: 0.06 ± 0.01 µM; IC50 HNE (NE activity / elastase release) [2, 7]: good inhibitory effects; efficacy relative to ursolic acid ([4]; fMLF-induced neutrophils): 5 fold; IC50 O2^.− generation [4, 7]: good inhibitory effects
4 | N#CC=C1C=CC(O)CC1OC1OC(CO)C(O)C(O)C1O (stereo not shown) [Compound 19, menisdaurin F] | > 30 | > 30 | > 30 | > 10 |  | > 10 | > 30 | > 30 | 
